Assay results published in PubChem BioAssay AID256 (DTP/NCI, 2004).
Several values for one entry are separate records, joined by “and”; a condition that tells them apart may be missing. Equal values may be shown once. Toxic doses and inconclusive results are not listed.

Test system: CD2F1 mice, L1210 leukemia ip, survival T/C
Experiment: NCI In Vivo Anticancer Drug Screen. Data for tumor model L1210 Leukemia (intraperitoneal) in CD2F1 (CDF1) mice
Details: higher = longer survival
Method in brief: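 Vehicle-treated tumor-bearing mice served as controls (C) for compound-treated mice (T). Reported figure is T divided by C.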

[1] = endpoint: mean survival time, dose: 12.5 mg/kg/injection, schedule: Q01DX009 (ip), vehicle: saline with Tween-80
[2] = endpoint: mean survival time, dose: 25.0 mg/kg/injection, schedule: Q01DX009 (ip), vehicle: saline with Tween-80
[3] = endpoint: median survival time, dose: 100.0 mg/kg/injection, schedule: Q04DX002 (ip), vehicle: saline with Tween-80
[4] = endpoint: mean survival time, dose: 100.0 mg/kg/injection, schedule: Q01DX001 (ip), vehicle: saline with Tween-80
[5] = endpoint: mean survival time, dose: 200.0 mg/kg/injection, schedule: Q01DX001 (ip), vehicle: saline with Tween-80
[6] = endpoint: mean survival time, dose: 400.0 mg/kg/injection, schedule: Q01DX001 (ip), vehicle: saline with Tween-80
[7] = endpoint: mean survival time, dose: 100.0 mg/kg/injection, schedule: Q01DX009 (ip), vehicle: saline with Tween-80
[8] = endpoint: mean survival time, dose: 100.0 mg/kg/injection, schedule: Q04DX003 (ip), vehicle: saline with Tween-80
[9] = endpoint: mean survival time, dose: 200.0 mg/kg/injection, schedule: Q01DX009 (ip), vehicle: saline with Tween-80
[10] = endpoint: mean survival time, dose: 200.0 mg/kg/injection, schedule: Q04DX003 (ip), vehicle: saline with Tween-80
[11] = endpoint: mean survival time, dose: 400.0 mg/kg/injection, schedule: Q01DX009 (ip), vehicle: saline with Tween-80
[12] = endpoint: mean survival time, dose: 400.0 mg/kg/injection, schedule: Q04DX003 (ip), vehicle: saline with Tween-80
[13] = endpoint: mean survival time, dose: 100.0 mg/kg/injection, schedule: Q04DX003 (ip), vehicle: saline
[14] = endpoint: mean survival time, dose: 200.0 mg/kg/injection, schedule: Q04DX003 (ip), vehicle: saline
[15] = endpoint: mean survival time, dose: 400.0 mg/kg/injection, schedule: Q04DX003 (ip), vehicle: saline
[16] = endpoint: mean survival time, dose: 400.0 mg/kg/injection, schedule: Q04DX002 (ip), vehicle: saline with Tween-80
[17] = endpoint: mean survival time, dose: 50.0 mg/kg/injection, schedule: Q04DX003 (ip), vehicle: saline

CCCCNCCC(SSSC(CCNCCCC)c1ccc(Cl)cc1)c1ccc(Cl)cc1 (centres undefined)
T/C (endpoint: mean survival time, dose: 6.25 mg/kg/injection, schedule: Q01DX009 (ip), vehicle: saline with Tween-80): 101 % of control
T/C [1]: 95 % of control
T/C [2]: 95 % of control

Cc1cccc2c1NC(=O)C2=O
T/C [3]: 94 % of control
T/C (endpoint: median survival time, dose: 400.0 mg/kg/injection, schedule: Q04DX002 (ip), vehicle: saline with Tween-80): 105 % of control

CC(=O)Nc1ccc(Cc2[nH]c(=O)[nH]c(=O)c2Br)cc1[N+](=O)[O-]
T/C [4]: 95 % of control
T/C [5]: 91 % of control
T/C [6]: 89 % of control

CC1C=CC(C)c2c(-c3ccccc3)oc(-c3ccccc3)c21 (centres undefined)
T/C [7]: 88 % of control
T/C [8]: 100 % of control
T/C [9]: 86 % of control
T/C [10]: 97 % of control
T/C [11]: 91 % of control
T/C [12]: 96 % of control

CCCc1cc(CCC)n2nc(N)nc2n1
T/C [8]: 96 % of control
T/C [10]: 94 % of control
T/C [12]: 94 % of control

CC(C(=O)c1ccccc1)N(C)c1ccccc1 (centres undefined)
T/C [13]: 107 % of control
T/C [14]: 100 % of control
T/C [15]: 102 % of control

CC1CC2(C)C(CC1=O)CC(C)C1C2CCC2(C)C1CCC2(C)O (centres undefined)
T/C [8]: 102 % of control
T/C [10]: 102 % of control
T/C [12]: 100 % of control

Cc1c([N+](=O)[O-])cc2c(c1[N+](=O)[O-])C(C)(C)CC2(C)C
T/C [7]: 100 % of control
T/C [8]: 96 % of control
T/C [9]: 98 % of control
T/C [10]: 105 % of control
T/C [11]: 96 % of control
T/C [12]: 94 % of control

O=P1(OCCBr)NCCCO1 (centres undefined)
T/C (endpoint: mean survival time, dose: 62.5 mg/kg/injection, schedule: Q01DX001 (ip), vehicle: water): 95 % of control
T/C (endpoint: mean survival time, dose: 125.0 mg/kg/injection, schedule: Q01DX001 (ip), vehicle: water): 101 % of control
T/C (endpoint: mean survival time, dose: 250.0 mg/kg/injection, schedule: Q01DX001 (ip), vehicle: water): 104 % of control
T/C (endpoint: mean survival time, dose: 500.0 mg/kg/injection, schedule: Q01DX001 (ip), vehicle: water): 98 % of control
T/C (endpoint: mean survival time, dose: 750.0 mg/kg/injection, schedule: Q01DX001 (ip), vehicle: water): 101 % of control

Cc1c(C=[N+]2CCCCC2)c2ccccc2n1C
T/C [1]: 95 % of control
T/C [2]: 95 % of control
T/C (endpoint: mean survival time, dose: 50.0 mg/kg/injection, schedule: Q01DX009 (ip), vehicle: saline with Tween-80): 93 % of control
T/C [7]: 87 % of control
T/C (endpoint: mean survival time, dose: 100.0 mg/kg/injection, schedule: Q04DX002 (ip), vehicle: saline with Tween-80): 100 % of control
T/C [16]: 112 % of control

COC(CNC1=C(C)C(=O)C2=C(C1=O)[C@H](COC(N)=O)[C@]1(OC)[C@@H]3N[C@@H]3CN21)OC
T/C (endpoint: mean survival time, dose: 1.5 mg/kg/injection, schedule: Q01DX001 (ip), vehicle: water): 118 % of control
T/C (endpoint: mean survival time, dose: 3.0 mg/kg/injection, schedule: Q01DX001 (ip), vehicle: water): 119 % of control and 109 % of control
T/C (endpoint: mean survival time, dose: 6.0 mg/kg/injection, schedule: Q01DX001 (ip), vehicle: water): 119 % of control
T/C (endpoint: mean survival time, dose: 24.0 mg/kg/injection, schedule: Q01DX001 (ip), vehicle: water): 151 % of control and 296 % of control
T/C (endpoint: mean survival time, dose: 48.0 mg/kg/injection, schedule: Q01DX001 (ip), vehicle: water): 86 % of control

C1CCC2C3CCC(O3)C2C1 (centres undefined)
T/C (endpoint: mean survival time, dose: 100.0 mg/kg/injection, schedule: Q04DX003 (ip), vehicle: saline sonified): 96 % of control
T/C (endpoint: mean survival time, dose: 200.0 mg/kg/injection, schedule: Q04DX003 (ip), vehicle: saline sonified): 96 % of control
T/C (endpoint: mean survival time, dose: 400.0 mg/kg/injection, schedule: Q04DX003 (ip), vehicle: saline sonified): 92 % of control

Cc1ccc(NC(=O)N(CCCl)N=O)cc1C
T/C (endpoint: mean survival time, dose: 1.6 mg/kg/injection, schedule: Q01DX001 (ip), vehicle: other): 115 % of control
T/C (endpoint: mean survival time, dose: 5.7 mg/kg/injection, schedule: Q01DX001 (ip), vehicle: other): 188 % of control
T/C (endpoint: mean survival time, dose: 8.6 mg/kg/injection, schedule: Q01DX001 (ip), vehicle: other): 190 % of control
T/C (endpoint: mean survival time, dose: 13.0 mg/kg/injection, schedule: Q01DX001 (ip), vehicle: other): 204 % of control
T/C (endpoint: mean survival time, dose: 20.0 mg/kg/injection, schedule: Q01DX001 (ip), vehicle: other): 309 % of control
T/C (endpoint: mean survival time, dose: 29.0 mg/kg/injection, schedule: Q01DX001 (ip), vehicle: other): 191 % of control

CCCCCCCCCCCCCCCCNS(=O)(=O)c1ccc2sc(SC)nc2c1
T/C (endpoint: mean survival time, dose: 12.5 mg/kg/injection, schedule: Q04DX002 (ip), vehicle: saline with Tween-80): 93 % of control
T/C (endpoint: mean survival time, dose: 25.0 mg/kg/injection, schedule: Q04DX002 (ip), vehicle: saline with Tween-80): 93 % of control

CC1=C(O)C(=O)OC1c1ccc(C)cc1 (centres undefined)
T/C (endpoint: mean survival time, dose: 12.5 mg/kg/injection, schedule: Q01DX009 (ip), vehicle: other): 101 % of control
T/C (endpoint: mean survival time, dose: 25.0 mg/kg/injection, schedule: Q01DX009 (ip), vehicle: other): 98 % of control
T/C (endpoint: mean survival time, dose: 50.0 mg/kg/injection, schedule: Q01DX009 (ip), vehicle: other): 95 % of control
T/C (endpoint: mean survival time, dose: 100.0 mg/kg/injection, schedule: Q01DX009 (ip), vehicle: other): 98 % of control
T/C (endpoint: mean survival time, dose: 200.0 mg/kg/injection, schedule: Q01DX009 (ip), vehicle: other): 104 % of control

O=Cc1cc(Cl)cc(Cl)c1O.O=Cc1cc(Cl)cc(Cl)c1O.[Co]
T/C (endpoint: mean survival time, dose: 50.0 mg/kg/injection, schedule: Q04DX003 (ip), vehicle: saline with Tween-80): 90 % of control
T/C [17]: 100 % of control
T/C [8]: 89 % of control
T/C [13]: 96 % of control
T/C [10]: 94 % of control
T/C [14]: 100 % of control
T/C [12]: 103 % of control
T/C [15]: 96 % of control

CN(C)c1ccc(NS(=O)(=O)c2ccccc2)cc1
T/C [4]: 103 % of control
T/C [5]: 98 % of control
T/C [6]: 97 % of control

CC([NH-])CC(C)[NH-].[Br][Pt+2][Br] (centres undefined)
T/C (endpoint: mean survival time, dose: 3.12 mg/kg/injection, schedule: Q04DX003 (ip), vehicle: saline with Tween-80): 120 % of control and 124 % of control
T/C (endpoint: mean survival time, dose: 12.5 mg/kg/injection, schedule: Q04DX003 (ip), vehicle: saline with Tween-80): 150 % of control

Nc1ccc(N)c(N)n1
T/C (endpoint: mean survival time, dose: 6.25 mg/kg/injection, schedule: Q01DX009 (ip), vehicle: saline sonified): 105 % of control
T/C (endpoint: mean survival time, dose: 12.5 mg/kg/injection, schedule: Q01DX009 (ip), vehicle: saline sonified): 96 % of control
T/C (endpoint: mean survival time, dose: 25.0 mg/kg/injection, schedule: Q01DX009 (ip), vehicle: saline sonified): 108 % of control

CC(=NCC(=O)O)c1ccccc1
T/C (endpoint: mean survival time, dose: 25.0 mg/kg/injection, schedule: Q04DX003 (ip), vehicle: saline): 93 % of control
T/C [17]: 100 % of control
T/C [13]: 100 % of control

O=[N+]([O-])c1ccc(O/N=C(\CN2CCOCC2)c2ccc(Cl)cc2)c([N+](=O)[O-])c1
T/C [8]: 94 % of control
T/C [10]: 86 % of control
T/C [12]: 90 % of control

CC(=O)N(C(C)=O)c1ccccc1
T/C [8]: 97 % of control
T/C [10]: 97 % of control
T/C [12]: 103 % of control

O=C1CC23CCCN2CCc2cc4c(cc2C3=C1O)OCO4 (centres undefined)
T/C (endpoint: mean survival time, dose: 1.56 mg/kg/injection, schedule: Q01DX009 (ip), vehicle: Klucel (hydroxypropylcellulose) (HPC)): 102 % of control
T/C (endpoint: mean survival time, dose: 3.13 mg/kg/injection, schedule: Q01DX009 (ip), vehicle: Klucel (hydroxypropylcellulose) (HPC)): 101 % of control
T/C (endpoint: mean survival time, dose: 6.25 mg/kg/injection, schedule: Q01DX009 (ip), vehicle: Klucel (hydroxypropylcellulose) (HPC)): 104 % of control
T/C (endpoint: mean survival time, dose: 12.5 mg/kg/injection, schedule: Q01DX009 (ip), vehicle: Klucel (hydroxypropylcellulose) (HPC)): 102 % of control
T/C (endpoint: mean survival time, dose: 25.0 mg/kg/injection, schedule: Q01DX009 (ip), vehicle: Klucel (hydroxypropylcellulose) (HPC)): 95 % of control

CC1C(=O)C(=O)C(CCc2ccccc2)C1=O (centres undefined)
T/C [7]: 97 % of control
T/C [9]: 102 % of control
T/C [11]: 109 % of control

O=C(CC(=O)C(F)(F)F)c1cccs1.O=C(CC(=O)C(F)(F)F)c1cccs1.O=C(CC(=O)C(F)(F)F)c1cccs1.[Sm]
T/C (endpoint: median survival time, dose: 50.0 mg/kg/injection, schedule: Q04DX002 (ip), vehicle: saline with Tween-80): 100 % of control
T/C [3]: 88 % of control
T/C (endpoint: median survival time, dose: 200.0 mg/kg/injection, schedule: Q04DX002 (ip), vehicle: saline with Tween-80): 100 % of control

CN(C)C(=O)Sc1ccc(N(C)C)cc1
T/C (endpoint: mean survival time, dose: 200.0 mg/kg/injection, schedule: Q04DX002 (ip), vehicle: saline with Tween-80): 107 % of control
T/C [16]: 107 % of control
